# Assay results: patent EP4725946A1, “IRAK4 DEGRADATION AGENT AND USE THEREOF” (Guangzhou Unirise Pharmaceutical Co., Ltd., priority 2023, dated 2024)
# Read-outs that look alike come from different tables or passages of the source.
# Biological target: T1, IRAK4 protein (Homo sapiens, UniProt Q9NWZ3)
# T1 sequence (Q9NWZ3 1-460): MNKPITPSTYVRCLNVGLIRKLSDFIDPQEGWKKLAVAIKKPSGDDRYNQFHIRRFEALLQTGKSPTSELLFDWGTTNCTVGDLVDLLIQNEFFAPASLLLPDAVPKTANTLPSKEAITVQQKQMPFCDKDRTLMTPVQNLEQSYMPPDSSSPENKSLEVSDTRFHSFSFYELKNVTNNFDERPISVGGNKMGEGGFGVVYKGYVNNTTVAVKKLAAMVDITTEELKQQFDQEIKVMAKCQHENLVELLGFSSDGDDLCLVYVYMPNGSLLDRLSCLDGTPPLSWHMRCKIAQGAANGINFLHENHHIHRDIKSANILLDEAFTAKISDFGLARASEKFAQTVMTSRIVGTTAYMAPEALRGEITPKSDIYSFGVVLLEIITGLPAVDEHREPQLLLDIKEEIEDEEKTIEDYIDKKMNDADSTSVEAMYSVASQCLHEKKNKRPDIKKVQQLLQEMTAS
# Assay: IRAK4 Degradation Assay in THP-1 Cells (Western Blot)
# Assay type: cell-based
# Set-up: endogenous in cells; host or cells: THP-1 cells
# Conditions: 24 hours, 0.0128 to 1000 nM, IRAK4 protein level by Western Blot; for Dmax: read-out: Dmax%
# Procedure: In a 6-well cell culture plate, an appropriate number of THP-1 cells were seeded. The plate was placed in a 5% CO2 incubator at 37°C for overnight culture. Then, the test compound's dimethyl sulfoxide solution was added, with the final concentration ranging from 0.0128 to 1000 nM. After continuous culture for 24 hours, the culture medium was removed, and the cells were collected in a 1.5 mL centrifuge tube. After adding lysis buffer and grinding thoroughly, the mixture was placed on ice for 30 minutes. It was then centrifuged at 15,000 xg and 4°C for 20 minutes. The supernatant was taken, and the level of IRAK4 protein was detected by Western Blot.
SMILES,"DC50 (THP-1 cells, read-out: DC50) [nM]",Dmax (THP-1 cells) [%],"Dmax (THP-1, THP-1 cells) [%]",Dmax% (THP-1 cells) [%],DC50 (THP-1 cells) [nM]
Cn1c(=O)n(C2CCC(=O)NC2=O)c2cccc(C#CCO[C@H]3CC[C@H](C(=O)N4CCC5(CC4)Cc4cc(NC(=O)c6cnn7cccnc67)c(N6CCC(CO)CC6)cc4O5)CC3)c21 (relative stereo) [Compound 74],2.78,,86.2,,
"O=C1CCC(N2Cc3cc(N4CCC(CN5CCC6(CC5)Cc5cc(NC(=O)c7cnn8cccnc78)c(N7CCC(CO)CC7)cc5O6)CC4)ccc3C2=O)C(=O)N1 (single isomer, unassigned) [Example 84]",1.13,,88.3,,
"O=C1CCC(N2Cc3cc(N4CCC(CN5CCC6(CC5)Cc5cc(NC(=O)c7cnn8cccnc78)c(N7CCC(CO)CC7)cc5O6)CC4)ccc3C2=O)C(=O)N1 (single isomer, unassigned) [Example 85]",0.66,,,89.8,
Cn1c(=O)n(C2CCC(=O)NC2=O)c2cccc(CN3CCC(CCN4CCC5(CC4)Cc4cc(NC(=O)c6cnn7cccnc67)c(N6CCC(CO)CC6)cc4O5)CC3)c21 (stereo not drawn) [Compound 1],1.09,,91.9,,
Cn1c(=O)n(C2CCC(=O)NC2=O)c2cccc(CN3CCC(CCN4CCC5(CC4)Cc4cc(NC(=O)c6cnn7cccnc67)c(N6CCN(CC(F)F)CC6)cc4O5)CC3)c21 (stereo not drawn) [Compound 6],9.65,85.1,,,
Cn1c(=O)n(C2CCC(=O)NC2=O)c2cccc(CN3CCC(CCN4CCC5(CC4)Oc4cc(NC(=O)c6coc7cccnc67)c(N6CCC(CO)CC6)cc4O5)CC3)c21 (stereo not drawn) [Compound 14],3.4,89.2,,,
Cn1c(=O)n(C2CCC(=O)NC2=O)c2cccc(C#CCOC3CCN(CCN4CCC5(CC4)Cc4cc(NC(=O)c6cnn7cccnc67)c(N6CCC(CO)CC6)cc4O5)CC3)c21 (stereo not drawn) [Compound 19],2.18,,87.9,,
Cn1c(=O)n(C2CCC(=O)NC2=O)c2cccc(C#CCOC3CCN(CCN4CCC5(CC4)Oc4cc(NC(=O)c6cnn7cccnc67)c(N6CCC(CO)CC6)cc4O5)CC3)c21 (stereo not drawn) [Compound 28],3.38,86.5,,,
Cn1c(=O)n(C2CCC(=O)NC2=O)c2cccc(CN3CCC4(CC3)CN(CCN3CCC5(CC3)Cc3cc(NC(=O)c6cnn7cccnc67)c(N6CCC(CO)CC6)cc3O5)C4)c21 (stereo not drawn) [Compound 32],,95.4,,,1.53
Cn1c(=O)n(C2CCC(=O)NC2=O)c2cccc(CN3CC4(CCN(CCN5CCC6(CC5)Cc5cc(NC(=O)c7cnn8cccnc78)c(N7CCC(CO)CC7)cc5O6)CC4)C3)c21 (stereo not drawn) [Compound 33],,94.8,,,1.66
Cn1c(=O)n(C2CCC(=O)NC2=O)c2cccc(C#CCOCCNCCN3CCC4(CC3)Cc3cc(NC(=O)c5cnn6cccnc56)c(N5CCC(CO)CC5)cc3O4)c21 (stereo not drawn) [Compound 59],1.17,,88.6,,
Cn1nc(N2CCC(=O)NC2=O)c2cccc(CN3CCC(CCN4CCC5(CC4)Cc4cc(NC(=O)c6coc7cccnc67)c(N6CCC(CO)CC6)cc4O5)CC3)c21 [Compound 62],7.34,,82.8,,
O=C1CCC(N2Cc3c(CN4CCC(CCN5CCC6(CC5)Cc5cc(NC(=O)c7cnn8cccnc78)c(N7CCC(CO)CC7)cc5O6)CC4)cccc3C2=O)C(=O)N1 (stereo not drawn) [Compound 64],1.3,,89.3,,
O=C1CCC(N2C(=O)c3cc(F)c(N4CCC(CCN5CCC6(CC5)Cc5cc(NC(=O)c7cnn8cccnc78)c(N7CCC(CO)CC7)cc5O6)CC4)cc3C2=O)C(=O)N1 (stereo not drawn) [Compound 72],7.7,,92.6,,
COC1(CN2CCC3(CC2)Cc2cc(NC(=O)c4cnn5cccnc45)c(N4CCC(CO)CC4)cc2O3)CCN(c2cccc3c2n(C)c(=O)n3C2CCC(=O)NC2=O)CC1 (stereo not drawn) [Example 79],1.55,,89.5,,
Cn1c(=O)n(C2CCC(=O)NC2=O)c2cccc(C3CC(CN4CCC5(CC4)Cc4cc(NC(=O)c6cnn7cccnc67)c(N6CCC(CO)CC6)cc4O5)C3)c21 (stereo not drawn) [Example 80],0.64,,83.4,,
Cn1c(=O)n(C2CCC(=O)NC2=O)c2cccc(N3CCC(O)(CC(=O)N4CCC5(CC4)Cc4cc(NC(=O)c6cnn7cccnc67)c(N6CCC(CO)CC6)cc4O5)CC3)c21 (stereo not drawn) [Example 81],1.02,,90.2,,
O=C1CCC(N2C(=O)c3ccc(N4CCC(CN5CCC6(CC5)Cc5cc(NC(=O)c7cnn8cccnc78)c(N7CCC(CO)CC7)cc5O6)CC4)cc3C2=O)C(=O)N1 (stereo not drawn) [Example 82],3.44,,85.6,,
Cn1c(=O)n(C2CCC(=O)NC2=O)c2cccc(N3CCC(CCN4CCC5(CC4)Cc4cc(NC(=O)c6cnn7cccnc67)c(N6CCC(CO)CC6)cc4O5)CC3)c21 (stereo not drawn) [Example 96],1.65,,92,,
O=C1CCC(N2C(=O)c3cc(F)c(N4CCC(CN5CCC6(CC5)Cc5cc(NC(=O)c7cnn8cccnc78)c(N7CCC(CO)CC7)cc5O6)CC4)cc3C2=O)C(=O)N1 (stereo not drawn) [Example 97],7.85,,87.9,,

# More lines, main results first:
"DC50 (THP-1 cells, read-out: DC50) [nM]",Dmax (THP-1 cells) [%],SMILES,"Dmax (THP-1, THP-1 cells) [%]",Dmax% (THP-1 cells) [%],DC50 (THP-1 cells) [nM]
4.14,93.5,Cn1c(=O)n(C2CCC(=O)NC2=O)c2cccc(CN3CCC(CCN4CCC5(CC4)Cc4cc(NC(=O)c6coc7cccnc67)c(N6CCC(CO)CC6)cc4O5)CC3)c21 (stereo not drawn) [Compound 3],,,
3.58,91.6,Cn1c(=O)n(C2CCC(=O)NC2=O)c2cccc(C#CCOC3CCN(CCN4CCC5(CC4)Cc4cc(NC(=O)c6coc7cccnc67)c(N6CCC(CO)CC6)cc4O5)CC3)c21 (stereo not drawn) [Compound 21],,,
3.08,88.3,Cn1c(=O)n(C2CCC(=O)NC2=O)c2cccc(C#CCOC3CCN(CCN4CCC5(Cc6cc(NC(=O)c7coc8cccnc78)c(N7CCC(CO)CC7)cc6O5)C4)CC3)c21 (stereo not drawn) [Compound 23],,,
7.12,92.8,Cn1c(=O)n(C2CCC(=O)NC2=O)c2cccc(C#CCOC3CCN(CCN4CCC5(CC4)Oc4cc(NC(=O)c6coc7cccnc67)c(N6CCC(CO)CC6)cc4O5)CC3)c21 (stereo not drawn) [Compound 29],,,
6.38,84.9,COCC1CCN(c2cc3c(cc2NC(=O)c2cnn4cccnc24)CC2(CCN(C[C@H]4CC[C@H](OCC#Cc5cccc6c5n(C)c(=O)n6C5CCC(=O)NC5=O)CC4)CC2)O3)CC1 (stereo partly drawn) [Compound 44],,,
2,83.9,Cn1c(=O)n(C2CCC(=O)NC2=O)c2cccc(C#CCO[C@H]3CC[C@H](CN4CCC5(Cc6cc(NC(=O)c7cnn8cccnc78)c(N7CCC(CO)CC7)cc6O5)C4)CC3)c21 (stereo partly drawn) [Compound 51],,,
5.25,89.2,Cn1c(=O)n(C2CCC(=O)NC2=O)c2cccc(C#CCO[C@H]3CC[C@H](CN4CCC5(CC4)Cc4cc(NC(=O)c6coc7cccnc67)c(N6CCC(CO)CC6)cc4C5)CC3)c21 (stereo partly drawn) [Compound 52],,,
2.77,77.5,Cn1c(=O)n(C2CCC(=O)NC2=O)c2cccc(C#CCO[C@H]3CC[C@H](CN4CCC5(CC4)Cc4cc(NC(=O)c6cnn7cccnc67)c(N6CCC(CO)CC6)cc4C5)CC3)c21 (stereo partly drawn) [Compound 53],,,
3.5,91.1,Cn1c(=O)n(C2CCC(=O)NC2=O)c2cccc(C#CCO[C@H]3CC[C@H](CN4CCC5(Cc6cc(NC(=O)c7coc8cccnc78)c(N7CCC(CO)CC7)cc6O5)C4)CC3)c21 (stereo partly drawn) [Compound 54],,,
7.79,90.4,Cn1c(=O)n(C2CCC(=O)NC2=O)c2cccc(C#CCO[C@H]3CC[C@@H](CN4CCC5(CC4)Cc4cc(NC(=O)c6coc7cccnc67)c(N6CCC(CO)CC6)cc4O5)CC3)c21 (stereo partly drawn) [Compound 56],,,
3.69,85.6,Cn1c(=O)n(C2CCC(=O)NC2=O)c2cccc(C#CCO[C@H]3CC[C@@H](CN4CCC5(Cc6cc(NC(=O)c7cnn8cccnc78)c(N7CCC(CO)CC7)cc6O5)C4)CC3)c21 (stereo partly drawn) [Compound 58],,,
2.98,86.2,Cn1c(=O)n(C2CCC(=O)NC2=O)c2cccc(C#CCO[C@H]3CC[C@H](CN4CCC5(CC4)Cc4cc(NC(=O)c6cnn7cc(Cl)cnc67)c(N6CCC(O)CC6)cc4O5)CC3)c21 (stereo partly drawn) [Example 86],,,
4.06,90,Cn1c(=O)n(C2CCC(=O)NC2=O)c2cccc(C#CCO[C@H]3CC[C@H](CN4CCC5(CC4)Cc4cc(NC(=O)c6cnn7cc(C#N)cnc67)c(N6CCC(CO)CC6)cc4O5)CC3)c21 (stereo partly drawn) [Example 87],,,
5.4,89,Cc1cc(-c2nc(C(=O)Nc3cc4c(cc3N3CCC(O)CC3)OC3(CCN(C[C@H]5CC[C@H](OCC#Cc6cccc7c6n(C)c(=O)n7C6CCC(=O)NC6=O)CC5)CC3)C4)co2)ccn1 (stereo partly drawn) [Example 88],,,
6.02,84.6,Cc1cc(-c2nc(C(=O)Nc3cc4c(cc3N3CCC(CO)CC3)OC3(CCN(C[C@H]5CC[C@H](OCC#Cc6cccc7c6n(C)c(=O)n7C6CCC(=O)NC6=O)CC5)CC3)C4)co2)ccn1 (stereo partly drawn) [Example 89],,,
2.24,87.1,Cn1c(=O)n(C2CCC(=O)NC2=O)c2cccc(C#CCO[C@H]3CC[C@H](CN4CCC5(CC4)Cc4cc(NC(=O)c6cnn7cc(CO)cnc67)c(N6CCC(CO)CC6)cc4O5)CC3)c21 (stereo partly drawn) [Example 90],,,
